Laboratory results reported in patent publication US4143041A, “4'-Deoxyvincristine and related compounds” (Eli Lilly and Company, priority 1977, dated 1979).
Structures can show the parent of a compound that is named as a salt.

Experiments:
[1] = system: experimental malignancies; conditions: cited from earlier work
[2] = system: experimental tumors; conditions: cited from earlier work
[3] = cited from earlier work
[4] = system: B16 melanoma; assay: transplanted B16 melanoma in mice (survival); format: in vivo; conditions: IP
Procedure: (§1) The compounds of this invention, as represented by Formula II above, particularly those in which R^1 is acetoxy, are powerful anti-tumor agents.
(§2) The following table -- Table 1 -- gives the results of several experiments in which transplanted tumors in mice were treated successfully with a compound of this invention.
(§3) In the table, column 1 gives the name of the compound; column 2, the transplanted tumor; column 3, the dose level or dose level range and the number of days the dosage was administered; column 4, the route of administration, and column 5, the percent inhibition of tumor growth or percent prolongation of survival time, e.g., B16. (ROS is an abbreviation of Ridgeway osteogenic sarcoma; GLS for Gardner lymphosarcoma; P1534(J) and L1210 are leukemias; CA755 is an adenocarcinoma; and B16 is a melanoma.).
**Delayed treatment-dosed 5th, 9th and 13th days

[5] = system: GLS (Gardner lymphosarcoma); assay: transplanted Gardner lymphosarcoma (GLS) in mice; format: in vivo
Procedure: as §1, §2, §3

[6] = system: transplanted tumors; assay: anti-tumor / oncolytic activity against transplanted tumors in mice; format: in vivo
Text: as §1

[7] = system: 755 (CA755 adenocarcinoma); assay: transplanted CA755 adenocarcinoma in mice; format: in vivo; conditions: IP
Procedure: as §1, §2, §3

[8] = system: P1534(J) leukemia; assay: transplanted P1534(J) leukemia in mice; format: in vivo; conditions: IP
Procedure: as §1, §2, §3

[9] = pKa' in 66% DMF; format: physicochemical
[10] = system: L1210 leukemia; assay: transplanted L1210 leukemia in mice; format: in vivo; conditions: IP
Procedure: as §1, §2, §3

[11] = system: ROS (Ridgeway osteogenic sarcoma); assay: transplanted Ridgeway osteogenic sarcoma (ROS) in mice; format: in vivo; conditions: IP
Procedure: as §1, §2, §3

## CCC12CN3CCc4c([nH]c5ccccc45)[C@@](C(=O)OC)(c4cc5c(cc4OC)N(C)[C@H]4[C@@](O)(C(=O)OC)[C@H](OC(C)=O)[C@]6(CC)C=CCN7CC[C@]54[C@@H]76)C[C@@H](C3)C1O2 (stereo partly drawn) [leurosine]
[1]
  activity in the treatment of experimental malignancies in animals: active
[2]
  oncolytic activity in experimental tumors in mice: demonstrated oncolytic activity
[3]
  clinical response: limited

## CC[C@H]1C[C@@H]2CN(CCc3c([nH]c4ccccc34)[C@@](C(=O)OC)(c3cc4c(cc3OC)N(C)[C@H]3[C@@](O)(C(=O)OC)[C@H](OC(C)=O)[C@]5(CC)C=CCN6CC[C@]43[C@@H]65)C2)C1 [deoxy VLB "B"]
[1]
  activity in the treatment of experimental malignancies in animals: active
[2]
  oncolytic activity in experimental tumors in mice: lack reproducible activity

## CC[C@H]1C[C@@H]2CN(CCc3c([nH]c4ccccc34)[C@@](C(=O)OC)(c3cc4c(cc3OC)N(C=O)[C@H]3[C@@](O)(C(=O)OC)[C@H](O)[C@]5(CC)C=CCN6CC[C@]43[C@@H]65)C2)C1 [4'-Deoxy-4-desacetyl 1-desmethyl-1-formyl-leurosidine sulfate]
[4]; 0.15-0.6 mg./kg. × 3 days, **delayed treatment, dosed 5th, 9th and 13th days
  Percent Inhibition or Prolongation of Survival Time: 31 -62%
[5]; 0.18 mg./kg. × 3 days, route not given
  Percent Inhibition or Prolongation of Survival Time: 95%
[5]; 0.6 mg./kg. × 3 days, route not given
  Percent Inhibition or Prolongation of Survival Time (Toxic): Toxic
[5]; 0.25-0.40 mg./kg. × 3 days, route not given
  Percent Inhibition or Prolongation of Survival Time: 94-100%

## CC[C@H]1C[C@@H]2CN(CCc3c([nH]c4ccccc34)[C@@](C(=O)OC)(c3cc4c(cc3OC)N(C)[C@H]3[C@@](O)(C(=O)OC)[C@H](O)[C@]5(CC)C=CCN6CC[C@]43[C@@H]65)C2)C1 [4'-deoxy-4-desacetylleurosidine]
[6]
  anti-tumor / oncolytic activity: oncolytic agent

## CC[C@]1(O)C[C@@H]2CN(CCc3c([nH]c4ccccc34)[C@@](C(=O)OC)(c3cc4c(cc3OC)N(C)[C@H]3[C@@](O)(C(=O)OC)[C@H](OC(C)=O)[C@]5(CC)C=CCN6CC[C@]43[C@@H]65)C2)C1 [vincaleukoblastine]
[1]
  activity in the treatment of experimental malignancies in animals: active

## CC[C@]1(O)C[C@@H]2CN(CCc3c([nH]c4ccccc34)[C@@](C(=O)OC)(c3cc4c(cc3OC)N(C)[C@@H]3[C@]45CCN4CC=C[C@@](CC)(C[C@]3(O)C(=O)OC)[C@H]45)C2)C1 [4-desacetoxy vinblastine]
[1]
  activity in the treatment of experimental malignancies in animals: active

## CCC1(O)CN2CCc3c([nH]c4ccccc34)C(C(=O)OC)(c3cc4c(cc3OC)N(C)C3C(O)(C(=O)OC)C(OC(C)=O)C5(CC)C=CCN6CCC43C65)CC(O)(C2)C1 (stereo not drawn) [leurocolombine]
[1]
  activity in the treatment of experimental malignancies in animals: active

## CC[C@H]1C[C@@H]2CN(CCc3c([nH]c4ccccc34)[C@@](C(=O)OC)(c3cc4c(cc3OC)N(C)[C@H]3[C@@](O)(C(=O)OC)[C@H](O)[C@]5(CC)C=CCN6CC[C@]43[C@@H]65)C2)C1 [4'-deoxy-4-desacetyl-leurosidine sulfate, 4'-deoxy-4-desacetylleurosidine sulfate]
[4]; 0.15 mg./kg. × 3 days, **delayed treatment, dosed 5th, 9th and 13th days
  Percent Inhibition or Prolongation of Survival Time: 77%
[4]; 0.3 mg./kg. × 3 days, **delayed treatment, dosed 5th, 9th and 13th days
  Percent Inhibition or Prolongation of Survival Time: 103%
[4]; 0.6 mg./kg. × 3 days, **delayed treatment, dosed 5th, 9th and 13th days
  Percent Inhibition or Prolongation of Survival Time (Toxic): Toxic
[7]; 0.25 mg./kg. × 3 days
  Percent Inhibition or Prolongation of Survival Time: 32%
[7]; 0.4 mg./kg. × 3 days
  Percent Inhibition or Prolongation of Survival Time: 37%
[7]; 0.6 mg./kg. × 3 days
  Percent Inhibition or Prolongation of Survival Time (Toxic): Toxic
[5]; 0.4 mg./kg. × 3 days, IP
  Percent Inhibition or Prolongation of Survival Time (Toxic): Toxic
[5]; 0.6 mg./kg. × 3 days, IP
  Percent Inhibition or Prolongation of Survival Time: 63%
[5]; 0.9 mg./kg. × 3 days, IP
  Percent Inhibition or Prolongation of Survival Time (Toxic): Toxic

## CC[C@H]1C[C@@H]2CN(CCc3c([nH]c4ccccc34)[C@@](C(=O)OC)(c3cc4c(cc3OC)N(C=O)[C@H]3[C@@](O)(C(=O)OC)[C@H](OC(C)=O)[C@]5(CC)C=CCN6CC[C@]43[C@@H]65)C2)C1 [4'-deoxy-1-formylleurosidine]
[4]; 0.9 mg./kg. × 3 days
  Percent Inhibition or Prolongation of Survival Time (Toxic): Toxic
[4]; 0.25-0.6 mg./kg. × 3 days
  Percent Inhibition or Prolongation of Survival Time: 98-146%
[7]; 0.25 mg./kg. × 3 days
  Percent Inhibition or Prolongation of Survival Time: 47%
[7]; 0.4 mg./kg. × 3 days
  Percent Inhibition or Prolongation of Survival Time: 73%
[7]; 0.6 mg./kg. × 3 days
  Percent Inhibition or Prolongation of Survival Time: 54%
[7]; 0.03-0.09 mg./kg. × 9 days
  Percent Inhibition or Prolongation of Survival Time: 8-72%
[7]; 0.06-0.135 mg./kg. × 10 days
  Percent Inhibition or Prolongation of Survival Time: 33-93%
[7]; 0.2-0.3 mg./kg. × 10 days
  Percent Inhibition or Prolongation of Survival Time (Toxic): Toxic
[8]; 0.18 mg./kg. × 10 days
  Percent Inhibition or Prolongation of Survival Time (Toxic): Toxic
[8]; 0.08-0.18 mg./kg. × 10 days
  Percent Inhibition or Prolongation of Survival Time: 9-46%
[5]; 0.25-0.6 mg./kg. × 3 days, IP
  Percent Inhibition or Prolongation of Survival Time: 73-100%
[9]
  pKa: 9

## CC[C@H]1C[C@@H]2CN(CCc3c([nH]c4ccccc34)[C@@](C(=O)OC)(c3cc4c(cc3OC)N(C=O)[C@H]3[C@@](O)(C(=O)OC)[C@H](OC(C)=O)[C@]5(CC)C=CCN6CC[C@]43[C@@H]65)C2)C1 [4'-Deoxy-1-formylleurosidine sulfate]
[5]; 0.18 mg./kg. × 3 days, IP
  Percent Inhibition or Prolongation of Survival Time: 100%
[5]; 0.25 mg./kg. × 3 days, IP
  Percent Inhibition or Prolongation of Survival Time (Toxic): Toxic
[5]; 0.4 mg./kg. × 3 days, IP
  Percent Inhibition or Prolongation of Survival Time: 100%
[5]; 0.6 mg./kg. × 3 days, IP
  Percent Inhibition or Prolongation of Survival Time (Toxic): Toxic
[10]; 0.25 mg./kg. × 3 days, *1 or more indefinite survivors
  Percent Inhibition or Prolongation of Survival Time: 65%
[10]; 0.4-0.6 mg./kg. × 3 days
  Percent Inhibition or Prolongation of Survival Time (Toxic): Toxic
[11]; 0.18 mg./kg. × 3 days
  Percent Inhibition or Prolongation of Survival Time: 93%
[11]; 0.25 mg./kg. × 3 days
  Percent Inhibition or Prolongation of Survival Time (Toxic): Toxic
[11]; 0.4 mg./kg. × 3 days
  Percent Inhibition or Prolongation of Survival Time: 100%

## CCC12CN3CCc4c([nH]c5ccccc45)[C@@](C(=O)OC)(c4cc5c(cc4OC)N(C=O)[C@H]4[C@@](O)(C(=O)OC)[C@H](OC(C)=O)[C@]6(CC)C=CCN7CC[C@]54[C@@H]76)C[C@@H](C3)C1O2 (stereo partly drawn) [leuroformine, N-formylleurosine]
[1]
  activity in the treatment of experimental malignancies in animals: active

## CC[C@@]1(O)C[C@@H]2CN(CCc3c([nH]c4ccccc34)[C@@](C(=O)OC)(c3cc4c(cc3OC)N(C)[C@H]3[C@@](O)(C(=O)OC)[C@H](OC(C)=O)[C@]5(CC)C=CCN6CC[C@]43[C@@H]65)C2)C1 [leurosidine]
[1]
  activity in the treatment of experimental malignancies in animals: active

## CCC1(O)CN2CCc3c([nH]c4ccccc34)C(C(=O)OC)(c3cc4c(cc3OC)N(C)C3C(O)(C(=O)OC)CC5(CC)C=CCN6CCC43C65)CC(C2)C1O (stereo not drawn) [4-desacetoxy-3'-hydroxyvinblastine]
[1]
  activity in the treatment of experimental malignancies in animals: active

## CC[C@]1(O)C[C@@H]2CN(CCc3c([nH]c4ccccc34)[C@@](C(=O)OC)(c3cc4c(cc3OC)N(C=O)[C@H]3[C@@](O)(C(=O)OC)[C@H](OC(C)=O)[C@]5(CC)C=CCN6CC[C@]43[C@@H]65)C2)C1 [leurocristine]
[1]
  activity in the treatment of experimental malignancies in animals: active

## CC[C@@H]1C[C@@H]2CN(CCc3c([nH]c4ccccc34)[C@@](C(=O)OC)(c3cc4c(cc3OC)N(C)[C@H]3[C@@](O)(C(=O)OC)[C@H](OC(C)=O)[C@]5(CC)C=CCN6CC[C@]43[C@@H]65)C2)C1 [deoxy VLB "A"]
[1]
  activity in the treatment of experimental malignancies in animals: active
[2]
  oncolytic activity in experimental tumors in mice: lack reproducible activity

## CC[C@@H]1C[C@@H]2CN(CCc3c([nH]c4ccccc34)[C@@](C(=O)OC)(c3cc4c(cc3OC)N(C=O)[C@H]3[C@@](O)(C(=O)OC)[C@H](OC(C)=O)[C@]5(CC)C=CCN6CC[C@]43[C@@H]65)C2)C1 [4'-Deoxyvincristine sulfate, 4'-deoxyvincristine sulfate]
[4]; 0.30-0.9 mg./kg. × 3 days, *1 or more indefinite survivors
  Percent Inhibition or Prolongation of Survival Time: 36-143%
[7]; 0.9 mg./kg. × 3 days
  Percent Inhibition or Prolongation of Survival Time (Toxic): Toxic
[7]; 0.06-0.13 mg./kg. × 9-10 days
  Percent Inhibition or Prolongation of Survival Time: 15-100%
[7]; 0.1-0.3 mg./kg. × 3 days
  Percent Inhibition or Prolongation of Survival Time: 36-100%
[7]; 0.25-1.8 mg./kg. × 9-10 days
  Percent Inhibition or Prolongation of Survival Time (Toxic): Toxic
[5]; 0.18-0.25 mg./kg. × 3 days, IP
  Percent Inhibition or Prolongation of Survival Time: 62-94%
[5]; 0.4-0.6 mg./kg. × 3 days, IP
  Percent Inhibition or Prolongation of Survival Time (Toxic): Toxic

## CCC1(O)CN2CCc3c([nH]c4ccccc34)C(C(=O)OC)(c3cc4c(cc3OC)N(C)C3C(O)(C(=O)OC)C(OC(C)=O)C5(CC)C=CCN6CCC43C65)CC(C2)C1O (stereo not drawn) [vincadioline]
[1]
  activity in the treatment of experimental malignancies in animals: active
